{"source": "PubChem BioAssay AID1259409", "about": "(Chemical Carcinogenesis Research Information System (CCRIS), 2018)", "origin": "cited, not measured here", "tested_on": "rodent chemically induced tumor inhibition, incidence and multiplicity", "assay": "CCRIS tumor inhibitor studies", "conditions": "Promoter: NONE USED"}
{"smiles": "C[C@]12CC[C@H](O)CC1=CC[C@@H]1[C@@H]2CC[C@]2(C)C(=O)CC[C@@H]12", "values": [{"measurement": "tumour outcome (control, treated, inhibition, significance)", "setting": "Carcinogen: 1,2-DIMETHYLHYDRAZINE, 540-73-8, Dose [Inhibitor]: 0.6% IN DIET BEGINNING 2 WK PRIOR TO 1ST CARCINOGEN DOSE FOR DURATION OF EXPERIMENT (STUDY DURATION: 42 WK), Route [Inhibitor]: ORAL, Species: MOUSE, Strain/Sex: BALB/C/FEMALE, Target Tissue: Type of Lesion: ANUS: SQUAMOUS CELL CARCINOMA, FIBROSARCOMA, Dose [Carcinogen]: 21 MG/KG 1/WK FOR 20 WK", "value": "38%, 50%, -32%, not calculated"}, {"measurement": "tumour outcome (control, treated, inhibition, significance)", "setting": "Carcinogen: 1,2-DIMETHYLHYDRAZINE, 540-73-8, Dose [Inhibitor]: 0.6% IN DIET BEGINNING 2 WK PRIOR TO 1ST CARCINOGEN DOSE FOR DURATION OF EXPERIMENT (STUDY DURATION: 42 WK), Route [Inhibitor]: ORAL, Species: MOUSE, Strain/Sex: BALB/FEMALE, Target Tissue: Type of Lesion: ANUS: SQUAMOUS CELL CARCINOMA, FIBROSARCOMA, Dose [Carcinogen]: 21 MG/KG 1/WK FOR 20 WK", "value": "26/151 (17%), 0/141 (0%), 100%, p<0.001"}, {"measurement": "tumour outcome (control, treated, inhibition, significance)", "setting": "Carcinogen: 7,12-DIMETHYLBENZ[A]ANTHRACENE, 57-97-6, Dose [Inhibitor]: 0.6% IN DIET BEGINNING 9 D POST CARCINOGEN DOSE (STUDY DURATION: 14 WK AFTER AGENT TREATMENT), Route [Inhibitor]: ORAL, Species: MOUSE, Strain/Sex: STRAIN-A/FEMALE, Target Tissue: Type of Lesion: LUNG: TUMOR, Dose [Carcinogen]: 0.5 MG IN 0.2 ML SESAME OIL ONCE", "value": "28/28 (100%), 20/23 (87%), 13%, not calculated"}, {"measurement": "tumour outcome (control, treated, inhibition, significance)", "setting": "Carcinogen: 7,12-DIMETHYLBENZ[A]ANTHRACENE, 57-97-6, Dose [Inhibitor]: 100 UG IN 0.2 ML ACETONE 1 HR PRIOR TO EACH CARCINOGEN DOSE (STUDY DURATION: 290 D), Route [Inhibitor]: DERMAL, Species: MOUSE, Strain/Sex: CD-1/FEMALE, Target Tissue: Type of Lesion: SKIN: CARCINOMA, Dose [Carcinogen]: 200 NMOL AT 6-7 WK OF AGE THEN 100 NMOL 1/WK 2 WK LATER", "value": "14/28 (50%), 5/26 (19%), 62%, p<0.001"}, {"measurement": "tumour outcome (control, treated, inhibition, significance)", "setting": "Carcinogen: 7,12-DIMETHYLBENZ[A]ANTHRACENE, 57-97-6, Dose [Inhibitor]: 400 UG IN 0.2 ML ACETONE 1 HR PRIOR TO EACH CARCINOGEN DOSE (STUDY DURATION: 290 D), Route [Inhibitor]: DERMAL, Species: MOUSE, Strain/Sex: CD-1/FEMALE, Target Tissue: Type of Lesion: SKIN: CARCINOMA, Dose [Carcinogen]: 200 NMOL AT 6-7 WK OF AGE THEN 100 NMOL 1/WK 2 WK LATER", "value": "14/28 (50%), 3/27 (11%), 78%, p<0.001"}, {"measurement": "tumour outcome (control, treated, inhibition, significance)", "setting": "Carcinogen: AZOXYMETHANE, 25843-45-2, Dose [Inhibitor]: 0, 0.5% DIET BEGINNING 1 DAY AFTER LAST CARCINOGEN DOSE AND CONTINUING FOR DURATION OF STUDY (STUDY DURATION: 18 WK), Route [Inhibitor]: ORAL, Species: RAT, Strain/Sex: F344/MALE, Target Tissue: Type of Lesion: COLON: TUMOR, Dose [Carcinogen]: 10 MG/KG 1/WK FOR 10 WK", "value": "10/15 (67%), 7/15 (47%), 30%, not significant"}, {"measurement": "tumour outcome (control, treated, inhibition, significance)", "setting": "Carcinogen: AZOXYMETHANE, 25843-45-2, Dose [Inhibitor]: 0, 0.5% DIET BEGINNING 1 DAY AFTER LAST CARCINOGEN DOSE AND CONTINUING FOR DURATION OF STUDY (STUDY DURATION: 18 WK), Route [Inhibitor]: ORAL, Species: RAT, Strain/Sex: F344/MALE, Target Tissue: Type of Lesion: SMALL INTESTINE: TUMOR, Dose [Carcinogen]: 10 MG/KG 1/WK FOR 10 WK", "value": "10/15 (67%), 8/15 (53%), 21%, not significant"}]}
